Common to all, as to type: cell-based
One assay has as its system Aeromonas hydrophila. The experiment in a line: MIC determination (NCCLS, 96-well, LB). As to conditions: 1 × 10^6 CFU/ml in LB, 30° C., 24 h. As for the experimental part:
(§1) The minimum inhibition concentration (MIC) of zeamine I was carried out according to the NCCLS guidelines (4). Briefly, 96-well plates containing 2-fold serial dilutions of zeamine I and control antibiotics were prepared with LB liquid medium. The fresh overnight LB cultures of tested bacterial strains were then inoculated to the above plates after dilution to yield a final density of 10^6 CFU/ml and 10^7 CFU/ml, respectively. The plates were then incubated with gentle shaking at 30° C. or 37° C. depending on the preferred growth temperature of the tested strains. After 24 h, the plates were collected to measure OD600. The MIC was defined as the lowest concentration of the antibiotic allowing no visible growth. The MIC assay was repeated twice each time with triplicate.

For a further assay, the system named is Bacillus cereus XJ8. The experiment in a line: MIC determination (NCCLS, 96-well, LB). As to conditions: 1 × 10^6 CFU/ml in LB, 30° C., 24 h. As for the experimental part:
as §1

Assay [1] has as its system Burkholderia cepacia H111. In words: MIC determination (NCCLS, 96-well, LB). The note with it: 1 × 10^6 CFU/ml in LB, 30° C., 24 h. As for the experimental part:
as §1

For assay [2], the system named is Burkholderia cepacia J2315. The experiment in a line: MIC determination (NCCLS, 96-well, LB). As to conditions: 1 × 10^6 CFU/ml in LB, 30° C., 24 h. As for the experimental part: as §1
The next assay relates to E. coli CFT073. The experiment in a line: MIC determination (NCCLS, 96-well, LB). The note with it: Escherichia coli, 1 × 10^6 CFU/ml in LB, 30° C., 24 h. As for the experimental part:
as §1

A further assay has as its system E. coli DH5α. In words: MIC determination (NCCLS, 96-well, LB). The note with it: Escherichia coli, 1 × 10^6 CFU/ml in LB, 30° C., 24 h. As for the experimental part:
as §1

The test system of assay [3] is Enterobacter aerogenes ATCC 13048. In words: MIC determination (NCCLS, 96-well, LB). As to conditions: Klebsiella aerogenes, ATCC13048, 1 × 10^6 CFU/ml in LB, 30° C., 24 h. As for the experimental part: as §1
The next assay concerns Klebsiella pneumonia. In words: MIC determination (NCCLS, 96-well, LB). The note with it: Klebsiella pneumoniae, 1 × 10^6 CFU/ml in LB, 30° C., 24 h. As for the experimental part:
as §1

Assay [4] relates to Pseudomonas aeruginosa PA14. The experiment in a line: MIC determination (NCCLS, 96-well, LB). The note with it: 1 × 10^6 CFU/ml in LB, 30° C., 24 h. As for the experimental part:
as §1

The subject of assay [5] is Pseudomonas aeruginosa PAO1. In words: MIC determination (NCCLS, 96-well, LB). As to conditions: 1 × 10^6 CFU/ml in LB, 30° C., 24 h. As for the experimental part:
as §1

A further assay deals with Salmonella enterica. In words: MIC determination (NCCLS, 96-well, LB). The note with it: 24 h. As for the experimental part:
as §1

The test system of assay [6] is Staphylococcus aureus ATCC 25531. The experiment in a line: MIC determination (NCCLS, 96-well, LB). As to conditions: ATCC25531, 1 × 10^6 CFU/ml in LB, 30° C., 24 h. As for the experimental part: as §1
For assay [7], the system named is Staphylococcus aureus BBA-41. In words: MIC determination (NCCLS, 96-well, LB). The note with it: BBA41, 1 × 10^6 CFU/ml in LB, 30° C., 24 h. As for the experimental part: as §1
Assay [8] relates to Gram-negative and Gram-positive bacterial pathogens. The experiment in a line: MIC on a range of bacterial pathogens (summary statement). As to conditions: summary of Table 3, in words. As for the experimental part: as §1
The minimum inhibition concentration (MIC) of zeamine I was determined on a range of bacterial pathogens. […] In contrast, a high dosage of ampicillin, which is a commonly used antibiotic, was required to inhibit the growth of these bacterial pathogens.

Assay [9] relates to Escherichia coli strain DH5α. In words: Antibiotic bioassay (agar well inhibition zone). As to conditions: 20 microliters of fraction in 4-mm wells, 37° C. overnight. As for the experimental part: The bactericidal activity was assayed using Escherichia coli strain DH5α following the method described previously by Zhang et al. (Zhang et al. (1998). Factors affecting biosynthesis by Xanthomonas albilineans of albicidin antibiotics and phytotoxins. J. Appl. Microbiol. 85: 1023-1028). Briefly, an overnight LB culture of strain DH5α was diluted by 10-fold in sterilized water, and 100 microliters of the dilute were added to 5 ml of 1% agarose solution, which was autoclaved with temperature being maintained at 50° C. The bioassay plate was prepared by adding the mixture onto a plate containing 20 ml LB agar. Bioassay was conducted by adding 20 microliters of bacterial supernatants or fractions to the 4-mm diameter wells in bioassay plate. The plate was incubated at 37° C. overnight before examination of inhibition zone.

The text below walks through data of patent US8748661B2, “Polyamino polyketide antibiotics and uses thereof” (priority 2008, dated 2014).

Values after ≈ are worked out from the molar mass of the structure shown. Some results are limits rather than exact numbers.

In the case of `CC1(C)S[C@@H]2[C@H](NC(=O)[C@H](N)c3ccccc3)C(=O)N2[C@H]1C(=O)O` [Ampicillin], the MIC is 125 µg/mL (≈ 358 µM) against Aeromonas hydrophila; 100 µg/mL (≈ 286 µM) with Bacillus cereus XJ8; more than 800 µg/mL in assay [1]; more than 800 µg/mL in assay [2]; 25 µg/mL (≈ 71.5 µM) in the assay with E. coli CFT073; 25 µg/mL (≈ 71.5 µM) against E. coli DH5α. For the same compound, the minimal inhibitory concentration (MIC) in assay [3] was more than 800 µg/mL; with Klebsiella pneumonia it was more than 800 µg/mL; in [4], 800 µg/mL (≈ 2290 µM); in [5] it was 400 µg/mL (≈ 1140 µM); against Salmonella enterica, 12.5 µg/mL (≈ 35.8 µM); in assay [6], 15.6 µg/mL (≈ 44.6 µM). The compound also returned an MIC in [7] of more than 500 µg/mL. Besides, the “dosage required to inhibit the growth of these bacterial pathogens” value in assay [8] was “high dosage”.

As to `NC[C@H]1O[C@H](O[C@H]2[C@H](O)[C@@H](O[C@H]3O[C@H](CO)[C@@H](O)[C@H](N)[C@H]3O)[C@H](N)C[C@@H]2N)[C@H](O)[C@@H](O)[C@@H]1O` [Kanamycin], the MIC in the assay with Aeromonas hydrophila was 25 µg/mL (≈ 51.6 µM); in the assay on Bacillus cereus XJ8, 3.1 µg/mL (≈ 6.4 µM); in assay [1], 6.2 µg/mL (≈ 12.8 µM); in assay [2], 400 µg/mL (≈ 826 µM); against E. coli CFT073, 6.2 µg/mL (≈ 12.8 µM); against E. coli DH5α it was 10 µg/mL (≈ 20.6 µM). For the same compound, the MIC in [3] worked out at 3.1 µg/mL (≈ 6.4 µM); against Klebsiella pneumonia, 3.1 µg/mL (≈ 6.4 µM); in [4], 200 µg/mL (≈ 413 µM); in assay [5] it was 200 µg/mL (≈ 413 µM); with Salmonella enterica, 12.5 µg/mL (≈ 25.8 µM); in assay [6], 6.2 µg/mL (≈ 12.8 µM). In assay [7], this compound had an MIC of 12.5 µg/mL (≈ 25.8 µM).

As to `CN(C)[C@@H]1C(O)=C(C(N)=O)C(=O)[C@@]2(O)C(O)=C3C(=O)c4c(O)cccc4[C@@](C)(O)[C@H]3C[C@@H]12` [Tetracycline], the MIC against Aeromonas hydrophila stood at 6.2 µg/mL (≈ 14 µM); against Bacillus cereus XJ8 it was 6.2 µg/mL (≈ 14 µM); in assay [1] it was 12.5 µg/mL (≈ 28.1 µM); in assay [2], 50 µg/mL (≈ 113 µM); against E. coli CFT073, 0.75 µg/mL (≈ 1.69 µM); with E. coli DH5α, 3.1 µg/mL (≈ 6.98 µM). Also, the MIC in assay [3] stood at 3.1 µg/mL (≈ 6.98 µM); against Klebsiella pneumonia, 6.2 µg/mL (≈ 14 µM); in assay [4], 12.5 µg/mL (≈ 28.1 µM); in assay [6], 3.1 µg/mL (≈ 6.98 µM); in [7], 6.2 µg/mL (≈ 14 µM).

With `CCCCCC(N)CCCCCCCC(N)CCCCCCCC(N)CCCCCCCC(N)CCCCCCCC(O)CCN` (stereo not drawn) [Zeamine II], in assay [9], the “antibiotic activity of HPLC fraction in bioassay” value was “minor active fraction”.

A word on the MIC: it is the lowest concentration found to suppress growth. Read a high MIC as a need for much substance.
